The values below come from ChEMBL document CHEMBL6109132, “Potent and Selective Human Constitutive Androstane Receptor Activator DL5055 Facilitates Cyclophosphamide-Based Chemotherapies” (J Med Chem, 2025).

The EC50 is the concentration at which the effect is half-maximal. Low readings indicate greater potency, high ones weaker potency.

Where only a bound is given, the exact number is not on record here.

For the first data set, the target named is T1, Nuclear receptor subfamily 1 group I member 2 (Homo sapiens, UniProt O75469).
T1 sequence (O75469 whole entry): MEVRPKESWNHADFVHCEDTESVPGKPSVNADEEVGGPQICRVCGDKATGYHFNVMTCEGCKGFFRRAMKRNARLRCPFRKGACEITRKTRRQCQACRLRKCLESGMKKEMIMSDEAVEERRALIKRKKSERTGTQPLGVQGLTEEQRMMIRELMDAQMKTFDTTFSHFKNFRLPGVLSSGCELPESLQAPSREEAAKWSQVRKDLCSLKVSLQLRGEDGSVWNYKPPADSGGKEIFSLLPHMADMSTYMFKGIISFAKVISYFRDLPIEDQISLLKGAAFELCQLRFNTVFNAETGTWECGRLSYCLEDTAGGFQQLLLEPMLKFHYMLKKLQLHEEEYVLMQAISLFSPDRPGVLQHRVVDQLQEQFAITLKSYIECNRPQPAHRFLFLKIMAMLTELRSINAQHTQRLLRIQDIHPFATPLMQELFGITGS
As to the kind of experiment: Activation of human PXR expressed in human HepG2 cells assessed as increase in CYP3A4 mRNA level at >1 uM incubated for 24 hrs by luciferase based analysis. Type of data set: cell-based. Conditions: hepg2, 24 h; call rule not given here.
Take `c1ccc2c(c1)CC(NCc1c(-c3ccc4ccccc4c3)nc3occn13)C2`: the outcome was Active.

For `Clc1ccc(-c2nc3sccn3c2/C=N/OCc2ccc(Cl)c(Cl)c2)cc1`, the result was Active.

A further data set has as its target T2, Nuclear receptor subfamily 1 group I member 3 (Homo sapiens, UniProt Q14994).
T2 sequence (Q14994 whole entry): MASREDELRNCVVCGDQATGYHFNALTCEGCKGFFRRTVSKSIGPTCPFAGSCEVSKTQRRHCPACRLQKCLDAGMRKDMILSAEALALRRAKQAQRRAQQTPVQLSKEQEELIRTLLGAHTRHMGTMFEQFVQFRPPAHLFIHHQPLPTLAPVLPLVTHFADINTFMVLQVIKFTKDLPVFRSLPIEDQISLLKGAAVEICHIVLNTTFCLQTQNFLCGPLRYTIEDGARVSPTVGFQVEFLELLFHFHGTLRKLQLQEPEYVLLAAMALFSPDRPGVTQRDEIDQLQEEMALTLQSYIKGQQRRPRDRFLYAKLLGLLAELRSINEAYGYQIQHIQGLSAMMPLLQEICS
Briefly: Agonist activity at human CAR expressed in human HepG2 cells co-expressing CYP2B6 incubated for 23 hrs by Luciferase reporter gene assay.
Conditions: not given
Type of data set: cell-based. (A reporter such as luciferase makes a cellular process visible.)
In turn, `c1ccc2c(c1)CC(NCc1c(-c3ccc4ccccc4c3)nc3occn13)C2` registered an EC50 of 0.67 µM.

`O=C(N[C@H]1C[C@H](c2ccccc2)C1)c1c(-c2ccc3ccccc3c2)nc2occn12` yielded an EC50 of 1.1 µM.

As to `O=C(NCCc1ccc(Br)cc1)c1c(-c2ccc3ccccc3c2)nc2occn12`, the EC50 turned out to be 3.5 µM. This EC50 lies about 3.2-fold higher than the previous one.

`O=C(NC1Cc2ccccc2C1)c1c(-c2ccc(F)cc2F)nc2occn12` came in with an EC50 of 0.44 µM.

As for `O=C(NC1Cc2ccccc2C1)c1c(CCc2ccccc2)nc2occn12`, the EC50 is more than 100 µM.

As for `O=C(NC1Cc2ccccc2C1)c1c(-c2ccc3c(c2)OCCO3)nc2occn12`, the EC50 amounted to 0.75 µM.

`O=C(Nc1c(-c2ccc3ccccc3c2)nc2occn12)C1Cc2ccccc2C1` displayed an EC50 of 1.2 µM. Against the preceding compound, the EC50 is about 1.6-fold higher.

Take `Cc1ccccc1CCNC(=O)c1c(-c2ccc3ccccc3c2)nc2occn12`: the response was half-maximal at 0.83 µM (EC50). The EC50 values of the last two compounds are within 1.5-fold of each other.

`O=C(OC1Cc2ccccc2C1)c1c(-c2ccc3ccccc3c2)nc2occn12`: the EC50 came to 0.38 µM.

Turning to `O=C(NC1Cc2ccccc2C1)c1c(-c2ccc(F)c(C(F)(F)F)c2)nc2occn12`, the EC50 amounted to 18 µM. Against the preceding compound, the EC50 is about 47-fold higher.

In turn, `O=C(N[C@H]1C[C@@H](c2ccccc2)C1)c1c(-c2ccc3ccccc3c2)nc2occn12` returned an EC50 of 0.33 µM. This EC50 lies about 55-fold lower than the previous one.

For the compound `O=C(NOCc1ccccc1)c1c(-c2ccc3ccccc3c2)nc2occn12`, the midpoint of the response, the EC50, lay at 4.4 µM.

The compound `O=C(NOCc1ccc(Cl)c(Cl)c1)c1c(-c2ccc3ccccc3c2)nc2occn12` displayed an EC50 of 0.35 µM. This EC50 lies about 13-fold lower than the previous one.

The compound `O=C(NCC1Cc2ccccc2C1)c1c(-c2ccc(F)cc2F)nc2occn12` gave an EC50 of 1.9 µM.

As for `O=C(NCC1Cc2ccccc2C1)c1c(-c2ccc3ccccc3c2)nc2occn12`, the EC50 turned out to be 0.21 µM.

As to `O=C(NC1Cc2ccccc2C1)c1c(-c2ccc(Cl)cc2)nc2occn12`, a half-maximal effect (EC50) was put at 0.38 µM.
